In patent US20240383893A1, “Hydroxamic Acid Compound Having ENPP1 Inhibitory Activity and Use Thereof” (Haihe Biopharma Co., Ltd., priority 2021, published 2024):

Molecular target: ENPP1 (hENPP1-ECD-His) (Homo sapiens (Human), UniProt P22413)
Sequence (P22413 98-925): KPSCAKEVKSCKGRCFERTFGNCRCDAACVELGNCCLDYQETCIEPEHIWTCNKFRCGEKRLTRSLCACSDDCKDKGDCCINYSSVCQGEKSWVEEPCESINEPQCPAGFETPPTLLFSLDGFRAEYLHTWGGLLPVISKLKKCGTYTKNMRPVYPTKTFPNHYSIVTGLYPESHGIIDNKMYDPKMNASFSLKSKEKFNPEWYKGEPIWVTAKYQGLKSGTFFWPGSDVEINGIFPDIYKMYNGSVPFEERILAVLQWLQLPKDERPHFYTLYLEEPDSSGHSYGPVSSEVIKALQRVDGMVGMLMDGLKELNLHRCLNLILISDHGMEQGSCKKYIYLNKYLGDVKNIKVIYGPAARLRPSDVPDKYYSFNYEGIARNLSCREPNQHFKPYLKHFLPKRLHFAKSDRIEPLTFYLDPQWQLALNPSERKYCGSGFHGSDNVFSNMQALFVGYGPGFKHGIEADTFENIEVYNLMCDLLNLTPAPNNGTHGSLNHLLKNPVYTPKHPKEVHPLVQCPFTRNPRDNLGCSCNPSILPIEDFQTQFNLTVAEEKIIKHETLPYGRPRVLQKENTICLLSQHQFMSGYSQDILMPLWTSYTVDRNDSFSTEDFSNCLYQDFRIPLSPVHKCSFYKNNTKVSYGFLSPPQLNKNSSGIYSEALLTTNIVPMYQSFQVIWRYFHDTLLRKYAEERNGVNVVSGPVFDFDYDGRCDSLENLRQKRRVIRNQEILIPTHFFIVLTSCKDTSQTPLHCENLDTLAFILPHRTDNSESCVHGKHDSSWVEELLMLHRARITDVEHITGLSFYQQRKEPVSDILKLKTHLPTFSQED

| IC50 | SMILES |
| --- | --- |
| 2.62 nM | COc1ccc2c(Nc3ccc(CC(=O)NO)cc3)ccnc2c1 [Compound 4] |
| 150 nM | COc1cccc2c(Oc3ccc(CC(=O)NO)cc3)c(C#N)cnc12 [Compound 5] |
| 2.17 nM | COc1ccc2c(Oc3ccc(CC(=O)NO)cc3)ncnc2c1 [Compound 8] |
| 2.7 nM | COc1ccc2c(Nc3ccc(CC(=O)NO)cc3)ncnc2c1 [Compound 10] |
| 28 nM | COc1cc2ncnc(Oc3ccc(CC(=O)NO)cc3)c2cc1OC [Compound 11] |
| 1.37 nM | COc1cc2nccc(Oc3ccc(CC(=O)NO)cc3)c2cc1F [Compound 13] |
| 1.2 nM | COc1ccc2c(Oc3ccc(CC(=O)NO)cc3)c(C#N)cnc2c1 [Compound 14] |
| 19 nM | Cn1ncc2c(Nc3ccc(CC(=O)NO)cc3)ncnc21 [Compound 15] |
| 64 nM | O=C(Cc1ccc(Nc2ncnc3ccccc23)cc1)NO [Compound 16] |
| 343 nM | Cn1c(=O)ccc2c(Nc3ccc(CC(=O)NO)cc3)ccnc21 [Compound 18, N-hydroxy-2-(4-((8-methyl-7-oxy-7,8-dihydro-1,8-naphthyridin-4-yl)amino)phenyl)acetamide] |
| 2.9 nM | COc1cc2nccc(Oc3ccc(CC(=O)NO)cc3)c2cn1 [Compound 19] |
| 324 nM | COc1cnc2c(Oc3ccc(CC(=O)NO)cc3)ccnc2c1 [Compound 20] |
| 3.1 nM | COc1ccc2c(Oc3ccc(CC(=O)NO)cc3C)ccnc2n1 [Compound 21] |
| 1.8 nM | COc1ccc2c(Nc3ccc(CC(=O)NO)cc3)nc(Cl)nc2c1 [Compound 22] |
| 36 nM | Cc1cc(Nc2ncnc3ccccc23)ccc1CC(=O)NO [Compound 24] |
| 1.9 nM | COc1ccc2c(Oc3ccc(CC(=O)NO)c(F)c3)ccnc2n1 [Compound 25] |
| 1.3 nM | COc1ccc2c(Oc3ccc(CC(=O)NO)cc3F)ccnc2n1 [Compound 26] |
| 2.1 nM | COc1ccc2c(Oc3ccc(C(C)C(=O)NO)cc3)ccnc2n1 (stereo not shown) [Compound 27] |
| 14 nM | Cn1ncc2c(Oc3ccc(CC(=O)NO)cc3)ccnc21 [Compound 28] |
| 14 nM | Cn1ncc2ncnc(Nc3ccc(CC(=O)NO)cc3)c21 [Compound 29] |
| 20 nM | O=C(Cc1ccc(Nc2ncnc3nc(O)ccc23)cc1)NO [Compound 31] |
| 2.4 nM | CCn1ncc2c(Nc3ccc(CC(=O)NO)cc3)ncnc21 [Compound 33] |
| 376 nM | O=C(Cc1ccc(Nc2ncnc3c2cnn3C2CC2)cc1)NO [Compound 34] |
| 49 nM | O=C(Cc1ccc(Nc2ncnc3cnccc23)cc1)NO [Compound 35] |

| IC50 | SMILES |
| --- | --- |
| 24 nM | CC(C(=O)NO)c1ccc(Oc2ccnc3c2cnn3C)cc1 (stereo not shown) [Compound 36] |
| 2.4 nM | COc1ccc2c(Nc3ccc(CC(=O)NO)cc3)nc(C)nc2n1 [Compound 37] |
| 4.4 nM | COc1ccc2c(Oc3ccc(C(O)C(=O)NO)cc3)ccnc2n1 (stereo not shown) [Compound 38] |
| 205 nM | O=C(Cc1ccc(Nc2ncnc3ncccc23)cc1)NO [Compound 39] |
| 4.8 nM | Cn1ncc2c(Nc3ccc(CC(=O)NO)cc3)ccnc21 [Compound 40] |
| 3 nM | Cn1ncc2c(Oc3ccc(C(C)(C)C(=O)NO)cc3)ccnc21 [Compound 41] |
| 2.7 nM | COc1ccc2c(Nc3ccc(CC(=O)NO)nc3)ccnc2n1 [Compound 44] |
| 3.1 nM | COc1ccc2c(Nc3ccc(CC(=O)NO)cn3)ccnc2n1 [Compound 45] |
| 16 nM | COc1ccc2c(Oc3cc(F)c(C(C)(C)C(=O)NO)c(F)c3)ccnc2n1 [Compound 46] |
| 4.5 nM | COc1ccc2c(Nc3cc(F)c(C(C)C(=O)NO)cc3F)ccnc2n1 (stereo not shown) [Compound 47] |
| 2.7 nM | COc1ccc2c(Nc3cc(F)c(C(C)C(=O)NO)c(F)c3)ccnc2n1 (stereo not shown) [Compound 48] |
| 1.4 nM | CCn1ncc2c(Nc3ccc(CC(=O)NO)cc3)ccnc21 [Compound 49] |
| 2.5 nM | COc1ccc2c(Nc3ccc4c(c3)CCC4C(=O)NO)ccnc2n1 (stereo not shown) [Compound 51] |
| 2.2 nM | COc1ccc2c(Nc3cc(F)c(CC(=O)NO)cc3F)ccnc2n1 [Compound 52] |
| 2.9 nM | CCn1ncc2c(Oc3ccc(C(C)(C)C(=O)NO)cc3)ccnc21 [Compound 53] |
| 1.6 nM | CCn1ncc2c(Oc3ccc(C4(C(=O)NO)CC4)cc3)ccnc21 [Compound 54] |
| 4.3 nM | Cc1nn(C)c2nccc(Nc3ccc(CC(=O)NO)cc3)c12 [Compound 55] |
| 2.3 nM | CCn1ncc2c(Nc3ccc(CC(=O)NO)c(OC)c3)ccnc21 [Compound 56] |
| 513 nM | O=C(Cc1ccc(Nc2ncnc3c2cnn3CC(F)(F)F)cc1)NO [Compound 57] |
| 41 nM | Cc1cc(Oc2ccc(C(C)(C)C(=O)NO)cc2)c2cnn(C)c2n1 [Compound 58] |
| 1.8 nM | COc1ccc2c(Nc3ccc4c(c3)OCC4C(=O)NO)ccnc2n1 (stereo not shown) [Compound 59] |
| 673 nM | Cc1ccc2c(Nc3ccc(CC(=O)NO)cc3)ncnc2n1 [Compound 60] |
| 1.7 nM | COc1ccc2c(Nc3ccc(C(C)C(=O)NO)c(F)c3)ccnc2n1 (stereo not shown) [Compound 61] |
| 1.6 nM | COc1ccc2c(Nc3c(F)cc(C(C)C(=O)NO)cc3F)ccnc2n1 (stereo not shown) [Compound 62] |

| IC50 | SMILES |
| --- | --- |
| 212 nM | COc1ccc2c(Oc3cccc(C(=O)NO)c3)ccnc2n1 [Compound 63] |
| 1.9 nM | CCn1ncc2c(Nc3ccc(C(C)C(=O)NO)c(F)c3)ccnc21 (stereo not shown) [Compound 65] |
| 1.7 nM | COc1ccc2c(Oc3ccc(C(C)(C)C(=O)NO)cc3)cc(C)nc2n1 [Compound 67] |
| 1.9 nM | COc1ccc2c(Nc3ccc(C(C)(C)C(=O)NO)cc3)ccnc2n1 [Compound 69] |
| 1.7 nM | COc1ccc2c(Nc3cc(F)c(CC(=O)NO)c(F)c3)ccnc2n1 [Compound 70] |
| 1.8 nM | COc1ccc2c(Nc3c(F)cc(CC(=O)NO)cc3F)ccnc2n1 [Compound 71] |
| 2.2 nM | COc1ccc2c(Oc3ccc(C(C)C(=O)NO)cc3F)ccnc2n1 (stereo not shown) [Compound 72] |
| 8.6 nM | CCn1ncc2c(Oc3ccc(C(C)C(=O)NO)cc3)ccnc21 (stereo not shown) [Compound 73] |
| 7.8 nM | CCn1nc(C)c2c(Nc3ccc(CC(=O)NO)cc3)ncnc21 [Compound 74] |
| 112 nM | COc1ccc2c(Oc3cccc(CC(=O)NO)c3)ccnc2n1 [Compound 75] |
| 289 nM | CCn1ncc2c(Oc3cccc(C(=O)NO)c3)ccnc21 [Compound 76] |
| 1.2 nM | CCn1ncc2c(Nc3ccc(CC(=O)NO)c(Cl)c3)ccnc21 [Compound 77] |
| 1.8 nM | COc1ccc2c(Nc3ccc(CC(=O)NO)c(Cl)c3)ccnc2n1 [Compound 78] |
| 1.9 nM | COc1ccc2c(Nc3ccc(CC(=O)NO)c(OC)c3)ccnc2n1 [Compound 79] |
| 1.9 nM | Cn1ncc2c(Oc3ccc(C4(C(=O)NO)CC4)cc3)ccnc21 [Compound 80] |
| 1.9 nM | Cn1ncc2c(Nc3ccc(C(C)(C)C(=O)NO)cc3)ccnc21 [Compound 81] |
| 1.7 nM | CCn1ncc2c(Nc3ccc(C(C)(C)C(=O)NO)cc3)ccnc21 [Compound 82] |
| 4.4 nM | CCn1nc(C)c2c(Nc3ccc(C(C)(C)C(=O)NO)cc3)ncnc21 [Compound 83] |
| 6.1 nM | Cc1nn(C)c2nccc(Oc3ccc(C(C)(C)C(=O)NO)cc3)c12 [Compound 84] |
| 4.8 nM | COc1ccc2c(Oc3ccc(C(OC)C(=O)NO)cc3)ccnc2n1 (stereo not shown) [Compound 85] |
| 24 nM | COc1ccc2c(N[C@H]3CC[C@H](CC(=O)NO)CC3)ccnc2n1 [Compound 89] |
| 4.5 nM | COc1ccc2c(Nc3cnn(CC(=O)NO)c3)ccnc2n1 [Compound 90] |
| 1.2 nM | CCn1ncc2c(Nc3ccc(C(C)(C)C(=O)NO)cc3)ncnc21 [Compound 91] |
| 169 nM | COc1ccc2c(Oc3ccc4c(C(=O)NO)cccc4c3)ccnc2n1 [Compound 92] |

| IC50 | SMILES |
| --- | --- |
| 257 nM | CC(C)(C(=O)NO)c1ccc(Oc2ccnc3cc(Cl)ccc23)cc1 [Compound 94] |
| 6.8 nM | COc1ccc2c(Nc3ccc(CC(=O)NO)c4ccccc34)ccnc2n1 [Compound 96] |
| 1.5 nM | COc1cc2nccc(Oc3ccc(C(C)(C)C(=O)NO)cc3)c2cn1 [Compound 97] |
| 125 nM | CCOc1ccc2c(Oc3ccc(CC(=O)NO)cc3)ccnc2c1 [Compound 98] |
| 63 nM | COc1ccc2nccc(Oc3ccc(C(C)(C)C(=O)NO)cc3)c2c1 [Compound 99] |
| 1.1 nM | COc1ccc2c(Nc3ccc(C(C)(C)C(=O)NO)cn3)ccnc2n1 [Compound 101] |
| 21 nM | COc1ccc2c(Oc3ccc(C(C)(C)C(=O)NO)c(Cl)c3)ccnc2n1 [Compound 103] |
| 2.3 nM | COc1ccc2c(Oc3ccc(C(C)(C)C(=O)NO)c(C)c3)ccnc2n1 [Compound 109] |
| 2.5 nM | COc1ccc2c(Oc3cc(F)c(C(C)(C)C(=O)NO)cc3F)ccnc2n1 [Compound 112] |
| 219 nM | COc1ccc2c(C(C)c3ccc(C(C)(C)C(=O)NO)cc3)ccnc2n1 (stereo not shown) [Compound 113] |
| 162 nM | COc1ccc2c(N(C)c3ccc(C(C)(C)C(=O)NO)cc3)ccnc2n1 [Compound 114] |
| 21 nM | COc1ccc2c(OC3CCN(C(C)(C)C(=O)NO)CC3)ccnc2n1 [Compound 116] |
| 2.1 nM | COc1ccc2c(NC3CCN(C(C)(C)C(=O)NO)CC3)ccnc2n1 [Compound 117] |
| 1.5 nM | COc1ccc2c(Nc3cnn(C(C)(C)C(=O)NO)c3)ccnc2n1 [Compound 118] |
| 1.2 nM | COc1cc2nccc(Oc3ccc(C4(C(=O)NO)CCCC4)cc3)c2cn1 [Compound 123] |
| 1.6 nM | CCC(CC)(C(=O)NO)c1ccc(Oc2ccnc3nc(OC)ccc23)cc1 [Compound 124] |
| 21 nM | COc1cc(Nc2ncnc3c2cnn3C)ccc1C(C)(C)C(=O)NO [Compound 126] |
| 1.6 nM | COc1ccc2c(Nc3ccc(C(C)(C)C(=O)NO)nc3)ccnc2n1 [Compound 127] |
| 5.7 nM | Cn1ncc2c(Oc3ccc(C4(C(=O)NO)CCCC4)cc3)ccnc21 [Compound 129] |
| 6.6 nM | COc1ccc2c(Oc3ccc(C(CC(C)C)C(=O)NO)cc3)ccnc2n1 (stereo not shown) [Compound 132] |
| 3.3 nM | COc1ccc2c(Oc3cc(F)c(C4(C(=O)NO)CCOCC4)cc3F)ccnc2n1 [Compound 134] |
| 7.1 nM | COc1ccc2c(Oc3ccc(C4(C(=O)NO)CCOCC4)c(Cl)c3)ccnc2n1 [Compound 135] |
